Reference: ChEMBL document CHEMBL1772986, “Scaffold-hopping strategy: synthesis and biological evaluation of 5,6-fused bicyclic heteroaromatics to identify orally bioavailable anticancer agents” (J Med Chem, 2011)
≈ marks a conversion by molar mass, not a printed value. Calls of active or inactive are those of the source. The rule behind the calls is not given here.

Experiments:
MKN-45 = assay: Cytotoxicity against human MKN45 cells after 72 hrs by methylene blue dye assay; assay type: functional, cell-based; conditions: MKN-45, 72 h
[1] = Metabolic stability in human liver microsomes assessed as compound remaining at 1 uM after 30 mins; assay type: ADME, Microsome; conditions: read-out: Stability
KB = assay: Cytotoxicity against human KB cells after 72 hrs by methylene blue dye assay; assay type: functional, cell-based
[2] = Solubility of the compound in phosphate buffer at 2 mg at pH 7.4 after 24 hrs; assay type: physicochemical
[3] = Cmax in Sprague-Dawley rat at 20 mg/kg, po; assay type: ADME, organism-based; parameters: dose 20 mg/kg, route oral; conditions: in vivo
[4] = Tmax in Sprague-Dawley rat at 20 mg/kg, po; assay type: ADME, organism-based; parameters: dose 20 mg/kg, route oral; conditions: in vivo
[5] = Oral bioavailability in Sprague-Dawley rat at 20 mg/kg; assay type: ADME, organism-based; conditions: in vivo
[6] = AUC in Sprague-Dawley rat at 20 mg/kg, po; assay type: ADME, organism-based; parameters: dose 20 mg/kg, route oral; conditions: plasma
Rattus norvegicus [7] = assay: Half life in Sprague-Dawley rat plasma at 5 mg/kg, iv; assay type: ADME, organism-based; parameters: dose 5 mg/kg, route intravenous; conditions: in vivo
[8] = Aqueous solubility in distilled water at 2 mg after 24 hrs; assay type: physicochemical
[9] = Half life in Sprague-Dawley rat plasma at 20 mg/kg, po; assay type: ADME, organism-based; parameters: dose 20 mg/kg, route oral
Rattus norvegicus [10] = assay: Volume of distribution at steady state in Sprague-Dawley rat at 5 mg/kg, iv; assay type: ADME, organism-based; parameters: dose 5 mg/kg, route intravenous; conditions: in vivo
Rattus norvegicus [11] = assay: AUC in Sprague-Dawley rat at 5 mg/kg, iv; assay type: ADME, organism-based, Plasma; parameters: dose 5 mg/kg, route intravenous; conditions: in vivo
[12] = Inhibition of tubulin polymerization measured every 30 seconds for 30 mins

Row | remaining at 0.5 h, 1 µM [1] [%] | solubility at 24 h [2] [µg/mL] | solubility at 24 h [8] [µg/mL] | Structure (SMILES) | IC50 (MKN-45) [nM] | IC50 (KB) [nM] | further results
1 | 99.6 | – | – | COc1ccc2c(C(=O)c3cc(OC)c(OC)c(OC)c3)cnn2n1 | > 1000 | > 1000 | –
2 | 54.1 | 0.61 (≈ 1.79 µM) | 0.9 (≈ 2.64 µM) | COc1ccc2c(C(=O)c3cc(OC)c(OC)c(OC)c3)c[nH]c2c1 | 5 | 6 | Cmax [3]: 179 ng/mL; Tmax [4]: 4 h; bioavailability [5]: 9.7%; AUC [6]: 1310 ng·h/mL; t1/2 (Rattus norvegicus [7]): 0.9 h; half-life [9]: 2.8 h; Vdss (Rattus norvegicus [10]): 1.6 L/kg; AUC (Rattus norvegicus [11]): 2712 ng·h/mL
3 | – | – | – | COc1ccc2c(C(=O)c3cc(OC)c(OC)c(OC)c3)ccn2c1 | 80 | 284 | –
4 | 88.3 | < 1 | < 2 | COc1ccc2c(C(=O)c3cc(OC)c(OC)c(OC)c3)c[nH]c2n1 | 16 | 20 | –
5 | – | – | – | COc1cc(C(=O)c2c[nH]c3nc(C)ccc23)cc(OC)c1OC [listing 1 of 2 here] | – | – | inhibition [12]: Active
6 | 35.4 | – | – | COc1ccc2c(C(=O)c3cc(OC)c(OC)c(OC)c3)c(C)cn2c1 | 26 | 31 | inhibition [12]: Active
7 | 96.4 | < 1 | < 2 | CCOc1ccc2c(C(=O)c3cc(OC)c(OC)c(OC)c3)c[nH]c2n1 | 14 | 12 | inhibition [12]: Active
8 | – | – | – | COc1ncc2c(C(=O)c3cc(OC)c(OC)c(OC)c3)c[nH]c2n1 | 80 | 284 | –
9 | – | 8.3 (≈ 25.4 µM) | 14.3 (≈ 43.8 µM) | COc1cc(C(=O)c2c[nH]c3nc(C)ccc23)cc(OC)c1OC [listing 2 of 2 here] | – | – | Cmax [3]: 3750 ng/mL; Tmax [4]: 0.5 h; bioavailability [5]: 35%; AUC [6]: 4640 ng·h/mL; t1/2 (Rattus norvegicus [7]): 0.4 h; half-life [9]: 1.3 h; Vdss (Rattus norvegicus [10]): 0.7 L/kg; AUC (Rattus norvegicus [11]): 2653 ng·h/mL
10 | – | 79.6 | 91.3 | COc1cc(C(=O)c2c[nH]c3nc(C)ccc23)cc(OC)c1OC.Cl | – | – | –
11 | – | – | – | COc1ccn2c(C(=O)c3cc(OC)c(OC)c(OC)c3)c(C)cc2c1 | 354 | > 1000 | –
12 | – | – | – | COc1ccn2c(C(=O)c3cc(OC)c(OC)c(OC)c3)cnc2c1 | 730 | 770 | –
13 | – | – | – | COc1ccc2c(C(=O)c3cc(OC)c(OC)c(OC)c3)n[nH]c2c1 | 95 | 70 | –
